Experiments:
[1] = target: T1, Telomeric repeat-binding factor 2 (Homo sapiens, UniProt Q15554); test: Binding affinity to TRFH domain of TRF2 (residues 42 to 245) (unknown origin) by FP based assay
T1 sequence (Q15554 whole entry): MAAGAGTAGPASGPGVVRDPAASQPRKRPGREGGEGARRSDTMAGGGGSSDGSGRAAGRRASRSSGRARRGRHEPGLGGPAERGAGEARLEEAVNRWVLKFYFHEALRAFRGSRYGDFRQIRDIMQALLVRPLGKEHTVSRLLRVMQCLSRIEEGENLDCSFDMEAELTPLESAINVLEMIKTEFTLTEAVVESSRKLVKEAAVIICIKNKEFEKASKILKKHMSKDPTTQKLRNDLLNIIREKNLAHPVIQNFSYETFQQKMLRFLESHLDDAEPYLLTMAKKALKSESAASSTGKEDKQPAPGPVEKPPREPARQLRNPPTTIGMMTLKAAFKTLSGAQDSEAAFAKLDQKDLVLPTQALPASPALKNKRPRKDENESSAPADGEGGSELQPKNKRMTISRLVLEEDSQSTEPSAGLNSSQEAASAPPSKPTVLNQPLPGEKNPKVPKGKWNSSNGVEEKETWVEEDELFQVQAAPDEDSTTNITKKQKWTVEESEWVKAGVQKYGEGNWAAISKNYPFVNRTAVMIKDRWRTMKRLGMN

[2] = target: T1, Telomeric repeat-binding factor 2; test: Binding affinity to biotinylated TRF2 (unknown origin) by biolayer interferometry assay

CC(C)C[C@@H]1NC(=O)[C@@H](NC(=O)c2cc(OCc3ccccc3)cc(OC3CCC3)c2)COCCCCOC[C@@H](C(=O)N(C)C)NC(=O)[C@@H]2CCCN2C(=O)[C@H](C)NC1=O
Ki [1]: 4.9 µM

CC(C)C[C@@H]1NC(=O)[C@@H](NC(=O)c2cc(OCc3ccccc3)cc(OC3CCCC3)c2)COCCCCOC[C@@H](C(=O)N(C)C)NC(=O)[C@@H]2CCCN2C(=O)[C@H](C)NC1=O
Ki [1]: 5.1 µM

CC(C)C[C@@H]1NC(=O)[C@@H](NC(=O)c2cc(OCCN)cc(OCc3ccccc3)c2)COCCCCOC[C@@H](C(=O)N(C)C)NC(=O)[C@@H]2CCCN2C(=O)[C@H](C)NC1=O
Ki [1]: 35 µM

CC(C)C[C@@H]1NC(=O)[C@@H](NC(=O)c2cc(OCc3ccccc3)cc(OCC3CCC3)c2)COCCCCOC[C@@H](C(=O)N(C)C)NC(=O)[C@@H]2CCCN2C(=O)[C@H](C)NC1=O
Ki [1]: 4.3 µM

CC(C)C[C@@H]1NC(=O)[C@@H](NC(=O)c2cc(OCc3ccccc3)cc(OC(C)C)c2)COCCCCOC[C@@H](C(=O)N(C)C)NC(=O)[C@@H]2CCCN2C(=O)[C@H](C)NC1=O
Ki [1]: 11 µM

CC(C)C[C@@H]1NC(=O)[C@@H](NC(=O)c2cc(OCc3ccccc3)cc(OCC3CC3)c2)COCCCCOC[C@@H](C(=O)N(C)C)NC(=O)[C@@H]2CCCN2C(=O)[C@H](C)NC1=O
Kd [2]: 2.5 µM | Ki [1]: 4.2 µM

CC(C)C[C@@H]1NC(=O)[C@@H](NC(=O)c2cc(OCc3ccccc3)cc(OCC3CCCC3)c2)COCCCCOC[C@@H](C(=O)N(C)C)NC(=O)[C@@H]2CCCN2C(=O)[C@H](C)NC1=O
Ki [1]: 6.9 µM

Ac-LALKYLLTPV-NH2
Ki [1]: 0.33 µM
